# Values quoted from earlier work as cited in patent US12383619B2, “Use of glutamate modulating agents with immunotherapies to treat cancer” (Biohaven Therapeutics Ltd., priority 2016, dated 2025).
# Key:
# PD-1 = target: T1, PD-1 (Homo sapiens, UniProt Q15116); conditions: 15 subjects, 0.3 mg/kg to 10 mg/kg, across all doses; cited from earlier work
# T1 construct: indicate that PD-1 occupancy appears to be dose-independent in this dose range; host or cells: endogenous receptor in dosed subjects
# T1 sequence (Q15116 25-288): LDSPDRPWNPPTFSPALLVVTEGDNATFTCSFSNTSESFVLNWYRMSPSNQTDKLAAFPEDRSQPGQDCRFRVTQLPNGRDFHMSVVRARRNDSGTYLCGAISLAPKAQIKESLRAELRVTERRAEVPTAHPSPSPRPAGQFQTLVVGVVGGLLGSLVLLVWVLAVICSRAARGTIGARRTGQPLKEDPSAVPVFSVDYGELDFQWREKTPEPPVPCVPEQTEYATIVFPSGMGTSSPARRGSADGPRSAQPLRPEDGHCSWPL
# [1] = test system: advanced (unresectable or metastatic) melanoma; conditions: cited from earlier work
# [2] = nivolumab 3 mg/kg every 2 weeks vs dacarbazine
substance,measurement,setting,value
nivolumab,mean occupancy rate (PD-1),PD-1,85%
same,mean plateau occupancy (PD-1),PD-1,72%
same,Complete response (CR) (number),"[1]; 3 mg/kg every 2 weeks, n = 210",16
same,Objective response (number),"[1]; 3 mg/kg every 2 weeks, n = 210",84
same,Overall survival: Events,"[1]; 3 mg/kg every 2 weeks, n = 210",50
same,"Overall survival: Events, figure in parentheses","[1]; 3 mg/kg every 2 weeks, n = 210",(23.8)
same,Partial response (PR) (number),"[1]; 3 mg/kg every 2 weeks, n = 210",68
same,Progression-free survival: Events,"[1]; 3 mg/kg every 2 weeks, n = 210",108
same,"Progression-free survival: Events, figure in parentheses","[1]; 3 mg/kg every 2 weeks, n = 210",(51.4)
same,Stable disease (SD) (number),"[1]; 3 mg/kg every 2 weeks, n = 210",35
same,Complete response (CR) (%),[1]; 3 mg/kg every 2 weeks,(7.6%)
same,Median duration of response,[1]; 3 mg/kg every 2 weeks,Not reached
same,Median time to response,[1]; 3 mg/kg every 2 weeks,2.1 Months
same,Objective response (%),[1]; 3 mg/kg every 2 weeks,(40.0%)
same,Overall survival: Median,[1]; 3 mg/kg every 2 weeks,Not reached
same,Overall survival: Rate At 6 months,[1]; 3 mg/kg every 2 weeks,84.1
same,Overall survival: Rate At 12 months,[1]; 3 mg/kg every 2 weeks,72.9
same,Partial response (PR) (%),[1]; 3 mg/kg every 2 weeks,(32.4%)
same,Progression-free survival: Median,[1]; 3 mg/kg every 2 weeks,5.1
same,Progression-free survival: Rate At 6 months,[1]; 3 mg/kg every 2 weeks,48.0
same,Progression-free survival: Rate At 12 months,[1]; 3 mg/kg every 2 weeks,41.8
same,Stable disease (SD) (%),[1]; 3 mg/kg every 2 weeks,(16.7%)
same,Objective response: Odds ratio,[1]; [2],4.06
same,Overall survival: Hazard ratio,[1]; [2],0.42
same,Progression-free survival: Hazard ratio,[1]; [2],0.43
